Experimental data taken from patent US6150373A, “Bicyclic nitrogen heterocycles” (Hoffmann-La Roche Inc., priority 1998, dated 2000).
Counter-ions that a name gives are not always drawn.

Biological target: human recombinant p56^lck (Homo sapiens, UniProt P06239)
Experiment: Inhibition of T-cell tyrosine kinase p56^lck (incorporation of 33P from [γ-^33 P] ATP into peptide substrate)
Type: biochemical
Conditions: 10 μM ATP, 20 μM peptide substrate, 30° C., 60 minutes, pH 7.5
Source text: As mentioned earlier, the compounds of formula I, the pharmaceutically acceptable salts of basic compounds of formula I with acids, and the pharmaceutically acceptable salts of acidic compounds of formula I with bases, are all inhibitors of the T-cell tyrosine kinase p56^lck which will down-regulate T-cell activation leading to immunosuppression and decrease inflammation. Therefore, the compounds of the invention are anti-inflammatory agents which can be used in combating the inflammatory condition which occurs in various diseases, as well as immunosuppressives which can be used, for example, for preventing graft rejection in transplantation therapy.
Reaction mixtures (25 μl) containing human recombinant p56^lck, 10 mM MnCl2, 10-μM ATP, 0.2 mM sodium vanadate, 20 μM peptide substrate (AlaGluGluGluIleTyr-GlyGlu-PheGluAlaLysLysLysLys, [γ-^33 P] ATP (1000-2000 cpm/pmol) in 25 mM HEPES buffer (pH 7.5) and 0.1% Triton X-100 are incubated at 30° C. for 60 minutes and the reaction is then stopped by the addition of 10 μl of 2% orthophosphoric acid. Radiolabelled peptide is separated from unreacted [γ-^33 P] ATP by filtration through Millipore Multiscreen phosphocellulose cation exchange paper filters. Bound peptide is washed with 0.5% orthophosphoric acid and incorporated radioactivity is determined by scintillation spectrometry.
The degree of enzyme blockade at each concentration of test compound is calculated from the following equation: [formula]
The IC50 value is that concentration of test compound which reduces by 50% the protein kinase-induced incorporation of the radiolabel under the test conditions described earlier.

Sequence of human recombinant p56^lck (P06239 whole entry): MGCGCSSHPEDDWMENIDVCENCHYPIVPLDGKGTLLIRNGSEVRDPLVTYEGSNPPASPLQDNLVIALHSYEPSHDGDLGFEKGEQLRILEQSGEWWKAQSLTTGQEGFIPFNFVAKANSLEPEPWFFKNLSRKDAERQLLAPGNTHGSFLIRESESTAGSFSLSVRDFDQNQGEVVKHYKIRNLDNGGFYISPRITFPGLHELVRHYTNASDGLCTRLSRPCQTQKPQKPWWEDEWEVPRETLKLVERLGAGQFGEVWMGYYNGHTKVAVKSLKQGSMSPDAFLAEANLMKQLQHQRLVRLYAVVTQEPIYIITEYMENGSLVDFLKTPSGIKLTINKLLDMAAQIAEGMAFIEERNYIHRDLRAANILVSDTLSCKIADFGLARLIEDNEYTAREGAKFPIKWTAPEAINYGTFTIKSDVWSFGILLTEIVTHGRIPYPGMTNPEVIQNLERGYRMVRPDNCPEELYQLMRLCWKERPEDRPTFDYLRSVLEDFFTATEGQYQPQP

SMILES | IC50 [nM]
CCN(CC)CCOc1ccc(Nc2ncc3c(n2)N(C)C(=O)N(c2c(Cl)cccc2Cl)C3)cc1 [Example 1, 3-(2,6-dichlorophenyl)-7-[4-[2-(diethylamino)ethoxy]anilino]-3,4-dihydro-1-methylpyrimido[4,5-d]pyrimidin-2(1H)-one] | 10
CCN(CC)CCOc1ccc(Nc2ncc3c(n2)N(c2ccccc2)C(=O)N(c2c(Cl)cccc2Cl)C3)cc1 [Example 7, 3-(2,6-dichlorophenyl)-7-[4-[2-(diethylamino)ethoxy]anilino]-3,4-dihydro-1-phenylpyrimido[4,5-d]pyrimidin-2(1H)-one] | 0.6
CCN(CC)CCOc1ccc(Nc2ncc3c(n2)N(Cc2cccnc2)C(=O)N(c2c(Cl)cccc2Cl)C3)cc1 [Example 10, 3-(2,6-dichlorophenyl)-7-[4-[2-(diethylamino)ethoxy]anilino]-3,4-dihydro-1-[(3-pyridyl)-methyl]pyrimido[4,5-d]pyrimidin-2(1H)-one trifluoroacetate] | 19
O=C1N(c2c(Cl)cccc2Cl)Cc2cnc(Nc3ccncc3)nc2N1c1ccccc1 [Example 22, 3-(2,6-dichlorophenyl)-3,4-dihydro-1-phenyl-7-[(4-pyridyl)amino]pyrimido[4,5-d]pyrimidin-2(1H)-one] | 265
NCCc1cccc(N2C(=O)N(c3c(Cl)cccc3Cl)Cc3cnc(Nc4ccccc4)nc32)c1 [Example 38, 1-[3-(2-aminoethyl)phenyl]-7-anilino-3-(2,6-dichlorophenyl)-3,4-dihydropyrimido[4,5-d]pyrimidin-2(1H)-one] | 0.03
NCCc1cccc(N2C(=O)N(c3ccccc3Br)Cc3cnc(Nc4ccccc4)nc32)c1 [Example 50, 1-[3-(2-aminoethyl)phenyl]-7-anilino-3-(2-bromophenyl)-3,4-dihydropyrimido[4,5-d]pyrimidin-2(1H)-one] | 6
O=C1N(c2ccccc2Br)Cc2cnc(Nc3ccccc3)nc2N1c1ccc(CO)cc1 [Example 63, 7-anilino-3-(2-bromophenyl)-3,4-dihydro-1-[4-(hydroxymethyl)phenyl]pyrimido[4,5-d]pyrimidin-2(1H)-one] | 17
CCN(CC)CCOc1ccc(Nc2ncc3c(n2)N(c2cccc(CCN(C)C)c2)C(=O)N(c2ccc(Cl)cc2Cl)C3)cc1 [Example 82, 3-(2,4-dichlorophenyl)-7-[4-[2-(diethylamino)ethoxy]anilino]-3,4-dihydro-1-[3-(2-(dimethylamino)ethyl)phenyl]pyrimido[4,5-d]pyrimidin-2(1H)-one] | 0.4
CCC(CC)(CN)c1cccc(N2C(=O)N(c3c(Cl)cccc3Cl)Cc3cnc(Nc4ccccc4)nc32)c1 [Example 85, 1-[3-(1-aminomethyl-1-ethyl-propyl)-phenyl]-3-(2,6-dichloro-phenyl)-7-phenylamino-3,4-dihydro-pyrimido[4,5-d]pyrimidin-2(1H)-one trifluoroacetate] | 7
